The values below come from patent US4335136A, “Anti-inflammatory 4,5-diaryl-α-(polyfluoroalkyl)-1H-pyrrole-2-methanamines” (E. I. Du Pont de Nemours and Company, priority 1981, dated 1982).

Structures are written as SMILES.

Assay [1] concerns adjuvant-induced arthritis in rats. The experiment in a line: Established Adjuvant-Induced Arthritis in Rats. The note with it: rat; for ED50: oral gavage once daily for 7 days (days 14-20), paw volume of uninjected left hind paw on day 21, ED50 % estimated by inspection, read-out: Adjuvant Arthritic ED 50; for Percent decrease from control mean paw volume (in parentheses after the ED50 bound): oral once daily for 7 days, presumably at the bounding dose. Format: in vivo, Lewis (Wistar) male rats.

Assay [2] has as its system phenylquinone writhing in mice. The experiment in a line: Phenylquinone writhing test. Format: in vivo, female white mice. Particulars: Mus musculus, 0.5 h; fasted female mice, oral; phenylquinone i.p. 24 minutes later; observed for 10 minutes from 30 minutes after dosing; read-out: Analgesic Phenylquinone Writhing ED50. Here is the method: PHENYLQUINONE WRITHING TEST
The phenylquinone writhing test, modified from Siegmund, et al., Proc. Soc. Exp. Biol. Med., 95, 729 (1957), was employed. A test compound suspended in 1% methylcellulose was given orally to fasted (17-21 hours) female white mice, 5-20 animals per double blind test. Aqueous (0.01% phenyl-p-benzoquinone) phenylquinone was injected intraperitoneally 24 minutes later using 0.20 ml per mouse. […] The effective analgesic dose for 50% of the mice (ED50) was calculated by the moving average method of Thompson, W. R., Bact. Rev., 11, 115-145 (1947).
On the technique in general: Writhing tests count abdominal constrictions after an irritant is injected.

For the compound `NC(c1cc(-c2ccc(F)cc2)c(-c2cccnc2)[nH]1)(C(F)(F)F)C(F)(F)F` [Example 12], the ED50 is 12.5 mg/kg in assay [1] and over 108 mg/kg in assay [2].

In the case of `NC(c1cc(-c2ccc(Cl)cc2)c(-c2ccc(Cl)cc2)[nH]1)(C(F)(F)F)C(F)(F)F` [Example 10], the ED50 in assay [1] was 4.4 mg/kg; in assay [2], over 108 mg/kg.

On to `Cc1c(C(N)(C(F)(F)F)C(F)(F)F)[nH]c(-c2ccc(F)cc2)c1-c1ccc(F)cc1` [Example 8], for which the ED50 in assay [1] is 0.77 mg/kg; in assay [2] it was over 108 mg/kg.

With `CN(C)c1ccc(-c2[nH]c(C(N)(C(F)(F)F)C(F)(F)F)cc2-c2ccc(F)cc2)cc1` [Example 9], the ED50 in assay [1] was 4.9 mg/kg; in assay [2], over 108 mg/kg.

In the case of `CNC(c1cc(-c2ccc(F)cc2)c(-c2ccc(F)cc2)[nH]1)(C(F)(F)F)C(F)(F)F` [Example 5, 4,5-Bis(4-fluorophenyl)-N-methyl-α,α-di(trifluoromethyl)-1H-pyrrole-2-methanamine], the ED50 in assay [1] was 0.8 mg/kg; in assay [2], over 108 mg/kg.

`CNC(c1cc(-c2ccc(F)cc2)c(-c2ccc(F)cc2)n1C)(C(F)(F)F)C(F)(F)F` [Example 14, 4,5-Bis(4-fluorophenyl)-N,1-dimethyl-α,α-di(trifluoromethyl)-1H-pyrrole-2-methanamine]: the ED50 in assay [1] is 1 mg/kg; in assay [2], over 108 mg/kg.

Turning to `NC(c1cc(-c2ccc(F)cc2)c(-c2ccc(Br)cc2)[nH]1)(C(F)(F)F)C(F)(F)F` [Example 6], the ED50 was 3.4 mg/kg in assay [1] and over 108 mg/kg in assay [2].

Regarding `NC(c1cc(-c2ccc(F)cc2)c(-c2ccc(F)cc2)[nH]1)(C(F)(F)F)C(F)(F)F` [Example 1, 4,5-Bis(4-fluorophenyl)-α,α-bis(trifluoromethyl)-1H-pyrrole-2-methanamine], the ED50 in assay [1] was 0.45 mg/kg; in assay [2], 27 mg/kg.

As for `COc1ccc(-c2cc(C(N)(C(F)(F)F)C(F)(F)F)[nH]c2-c2ccc(OC)cc2)cc1` [Example 4], the ED50 was 3.3 mg/kg in assay [1] and 45 mg/kg in assay [2].

Take `Cc1ccc(-c2cc(C(N)(C(F)(F)F)C(F)(F)F)[nH]c2-c2ccc(C)cc2)cc1` [Example 7]: the ED50 is over 9 mg/kg in assay [1] and over 108 mg/kg in assay [2]. Besides, the “Percent decrease from control mean paw volume (in parentheses after the ED50 bound)” value in assay [1] (9 mg/kg) turned out to be 45%.

`NC(c1cc(-c2ccccc2)c(-c2ccccc2)[nH]1)(C(F)(F)F)C(F)(F)F` [Example 11]: the ED50 was 20 mg/kg in assay [1] and over 108 mg/kg in assay [2].

Turning to `Cn1c(C(N)(C(F)(F)F)C(F)(F)F)cc(-c2ccc(F)cc2)c1-c1ccc(F)cc1` [Example 3], the ED50 in assay [1] is 2.6 mg/kg; in assay [2], over 108 mg/kg.

As to `NC(c1cc(-c2ccc(F)cc2)c(-c2ccc(F)cc2)[nH]1)(C(F)(F)F)C(F)(F)Cl` (stereo not shown) [Example 15], the ED50 in assay [1] is 0.7 mg/kg.

Turning to `NC(c1cc(-c2ccc(F)cc2)c(-c2ccc(F)cc2)[nH]1)C(F)(F)F` (stereo not drawn) [Example 2, 4,5-Bis(4-fluorophenyl)-α-(trifluoromethyl)-1H-pyrrole-2-methanamine], in assay [1], the ED50 was over 25 mg/kg. Further, the “Percent decrease from control mean paw volume (in parentheses after the ED50 bound)” value in assay [1] (25 mg/kg) is on record as 29%.

With `NC(c1cc(-c2ccc(F)cc2)c(-c2ccc(F)cc2)n1Cc1ccccc1)(C(F)(F)F)C(F)(F)F` [Example 13], the figures for the ED50 in assay [1] and in assay [2] were over 25 mg/kg and over 108 mg/kg, respectively. In addition, in assay [1] (25 mg/kg), the “Percent decrease from control mean paw volume (in parentheses after the ED50 bound)” value is 24%.
